# Results reported in the supplement of paper PMC10307832.
# Experiments:
# Assay in all cases: relative viability (nuclei count vs DMSO), 5 days (fraction); higher = more cells survive
# Selisistat + Navitoclax = compound: C1CC(C2=C(C1)C3=C(N2)C=CC(=C3)Cl)C(=O)N [Selisistat] + CC1(C)CCC(c2ccc(Cl)cc2)=C(CN2CCN(c3ccc(C(=O)NS(=O)(=O)c4ccc(N[C@H](CCN5CCOCC5)CSc5ccccc5)c(S(=O)(=O)C(F)(F)F)c4)cc3)CC2)C1 [Navitoclax] (partner 0.5 µM)
# In short: (§1)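 Five library-drug doses in √10 steps were combined with a fixed anchor-drug dose, or a single drug was given alone, by pin tool to lung cancer cell lines in 1536-well plates the day after seeding. Nuclei were stained and counted after 5 days. Relative viability is the nuclei count in treated wells over that in vehicle wells, taken as the median of duplicate plates.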
# Selisistat + Lapatinib = compound: C1CC(C2=C(C1)C3=C(N2)C=CC(=C3)Cl)C(=O)N [Selisistat] + CS(=O)(=O)CCNCc1ccc(-c2ccc3ncnc(Nc4ccc(OCc5cccc(F)c5)c(Cl)c4)c3c2)o1 [Lapatinib] (partner 2 µM)
# In short: as §1
# Serdemetan + Luminespib = compound: c1ccc2c(CCNc3ccc(Nc4ccncc4)cc3)c[nH]c2c1 [Serdemetan] + CCNC(=O)c1noc(-c2cc(C(C)C)c(O)cc2O)c1-c1ccc(CN2CCOCC2)cc1 [Luminespib] (partner 0.01 µM)
# In short: as §1
# Serdemetan + Dasatinib = compound: c1ccc2c(CCNc3ccc(Nc4ccncc4)cc3)c[nH]c2c1 [Serdemetan] + Cc1nc(Nc2ncc(C(=O)Nc3c(C)cccc3Cl)s2)cc(N2CCN(CCO)CC2)n1 [Dasatinib] (partner 0.075 µM)
# In short: as §1
Cell Line,relative viability (Selisistat + Navitoclax; first compound 0.4 µM),relative viability (Selisistat + Navitoclax; first compound 1.265 µM),relative viability (Selisistat + Navitoclax; first compound 12.65 µM),relative viability (Selisistat + Navitoclax; first compound 40 µM),relative viability (Selisistat + Lapatinib; first compound 0.4 µM),relative viability (Selisistat + Lapatinib; first compound 1.265 µM),relative viability (Selisistat + Lapatinib; first compound 12.65 µM),relative viability (Selisistat + Lapatinib; first compound 40 µM),relative viability (Serdemetan + Luminespib; first compound 0.04 µM),relative viability (Serdemetan + Luminespib; first compound 0.1265 µM),relative viability (Serdemetan + Luminespib; first compound 0.4 µM),relative viability (Serdemetan + Luminespib; first compound 1.265 µM),relative viability (Serdemetan + Luminespib; first compound 4 µM),relative viability (Serdemetan + Dasatinib; first compound 0.04 µM),relative viability (Serdemetan + Dasatinib; first compound 0.1265 µM),relative viability (Serdemetan + Dasatinib; first compound 0.4 µM),relative viability (Serdemetan + Dasatinib; first compound 1.265 µM),relative viability (Serdemetan + Dasatinib; first compound 4 µM),relative viability (Selisistat + Navitoclax; first compound 4 µM),relative viability (Selisistat + Lapatinib; first compound 4 µM)
NCI-H1792,0.609,0.611,0.629,0.594,0.917,0.89,0.829,0.926,0.471,0.407,0.422,0.415,0.298,0.746,0.773,0.747,0.533,0.493,–,–
SK-LU-1,1.08,0.897,0.837,0.893,0.924,0.825,0.958,0.867,0.19,0.201,0.223,–,0.207,0.212,0.183,0.183,–,0.179,1.05,0.936
NCI-H1650,1.16,1.41,1.31,1.12,0.918,0.74,0.685,0.693,0.212,0.213,0.205,0.177,0.184,0.297,0.345,0.272,0.34,0.268,1.14,0.579
NCI-H2009,1.18,1.15,1.14,1.1,0.903,0.961,0.826,0.987,0.925,0.979,0.997,1.01,0.888,0.315,0.326,0.31,0.25,0.221,1.19,0.454
LOU-NH91,0.695,0.637,0.664,0.707,0.753,0.741,0.762,0.758,0.282,0.334,0.347,0.296,0.299,0.564,0.554,0.371,0.43,0.565,0.58,0.741
NCI-H2405,0.785,–,0.804,0.793,1.01,–,1.03,1.09,0.716,0.664,0.64,0.573,0.596,0.173,0.217,0.21,0.209,0.133,–,–
LCLC-97TM1,0.535,0.476,0.473,0.483,0.779,1.12,0.928,1.32,0.739,0.738,0.653,–,0.596,0.824,0.971,0.823,–,0.748,0.621,0.86
NCI-H596,0.952,0.959,0.904,0.895,1.16,1.16,1.14,1.12,1.02,0.955,0.861,0.59,0.602,0.677,0.637,0.645,0.565,0.522,0.944,1.03
NCI-H727,0.501,0.445,–,0.38,0.626,0.841,–,0.725,0.319,0.481,0.288,0.265,0.385,0.36,0.42,0.445,0.251,0.25,–,–
H3255,0.512,0.643,0.438,0.511,0.225,0.263,0.245,0.271,0.913,1.02,0.783,0.994,0.669,0.422,0.384,0.258,0.323,0.431,0.293,0.123
SK-MES-1,1.29,1.14,1.26,1.26,0.479,0.525,0.504,0.426,0.789,0.731,0.799,0.617,0.772,0.337,0.378,0.327,0.379,0.267,1.4,0.411
NCI-H1437,1.13,1.1,1.01,0.919,0.801,0.758,0.71,0.776,1.11,1,1.06,1.02,0.788,0.347,0.352,0.388,0.274,0.289,1.1,0.341
LU99A,0.797,0.864,0.915,0.966,1.06,0.913,0.914,0.962,0.26,0.259,0.185,0.182,0.193,0.545,0.515,0.592,0.217,0.232,0.864,1.06
HCC-827,1.03,0.992,1.01,1.01,0.192,0.189,0.182,0.186,0.606,0.563,–,0.288,0.344,0.372,0.231,–,0.229,0.138,1.01,0.203
LK-2,1.01,0.746,0.847,1.04,0.858,0.749,0.935,1.05,0.18,0.172,0.191,0.161,0.2,0.315,0.269,0.334,0.233,0.379,0.954,0.701
BEN,0.0717,0.0697,0.0731,0.0771,0.677,0.683,0.603,0.548,0.24,0.2,0.461,–,0.329,0.302,0.3,0.312,–,0.356,0.0619,0.471
NCI-H23,0.853,0.936,0.943,0.876,1.16,1.06,1.24,1,0.219,0.223,0.214,0.211,0.196,0.734,0.877,0.794,0.548,0.914,–,–
NCI-H1395,1.19,1.14,1.13,0.937,1.09,0.973,0.91,0.883,0.651,0.671,0.673,0.6,0.459,0.396,0.42,0.481,0.406,0.281,1.07,1
201T,1.21,1.17,1.25,1.25,1.11,1.02,1.03,1.08,1.05,1.07,1.03,0.895,0.692,0.568,0.508,0.546,0.449,0.464,1.16,1.02
NCI-H2170,0.601,0.623,0.708,0.713,0.265,0.272,0.28,0.253,0.643,0.596,0.807,0.459,0.56,0.437,0.612,0.474,0.513,0.569,0.618,0.268
NCI-H460,1.2,1.16,1.08,1.3,0.909,0.952,0.903,0.911,0.0305,0.0294,0.0326,0.0303,0.0264,0.616,0.545,0.47,0.258,0.141,–,–
HCC-15,0.778,0.737,0.756,0.742,0.878,0.864,0.867,1.01,0.362,0.33,0.281,0.348,0.288,0.676,0.608,0.562,0.541,0.49,–,–
EPLC-272H,1.07,1.16,1.23,1.25,0.761,0.996,0.955,0.915,0.307,0.401,0.373,0.252,0.602,0.42,0.397,0.389,0.29,0.418,–,–
